What was measured:
[1] = test system: Human adipose tissue derived stem cells (hADSCs); assay: Cytotoxicity assay by lactate dehydrogenase (LDH) leakage in hADSCs; format: cell-based; settings: 10 μM, % of total cell toxicity
Protocol: (§1) Human adipose tissue derived stem cells (hADSCs), which is derived from adipose tissue, were selected an maintained in a keratinocyte SFM medium (Gibco BRL, Gaithersburg, Md.) supplemented with 5% FBS, 100 U/ml of penicillin and streptomycin.
(§2) New synthetic compounds were dissolved in DMSO to a final concentration of 10 mM and stored at −20° C. The concentration used was 10 μM and freshly diluted to the medium with a final concentration of DMSO at 0.1%. Control cultures were treated with the same amount of DMSO as used in the corresponding experiments.
Lactate dehydrogenase (LDH) leakage from cells was measured to quantify the cytotoxicity by using a cytotoxicity detection kit (Roche, Germany) (Crowston, J. G. et al Invest. Ophthalmol. Vis. Sci. 1998, 39, 449). Cells were previously seeded into 48-well plates (4×10^4 cells/well). After a drug treatment, the supernatants and cell layers of the cultures were collected for assay. According to the manufacturer's guidelines for the detection kit, cell layers were lysed with 1% TritonX-100, and cell lysates and supernatants were assayed in a 96-well plate, respectively. Briefly, 100 μL of catalyst solution was added in each assay well for 20 min. Absorbance was measured with an ELISA reader with a 490 nm filter. LDH leakage was shown as relative activity (% of total cell toxicity).

[2] = Cell viability by MTT assay in hADSCs; format: cell-based, human; settings: human, human adipose tissue derived stem cells (hADSCs), % of control
Protocol: as §1, §2
The MTT assay is a calorimetric assay based on the ability of the viable cells to reduce a soluble yellow tetrazolium salt to blue formazan crystals (Carmichael, J. et. el. Cancer Research 1987, 47, 936). After compound treatments, 350 μL of MTT solution ([…] in PBS) were added to each well and incubated for 4 hrs. DMSO was then added for another 0.5 hrs to thoroughly dissolve the dark blue crystals. The absorbance at 570 nm was measured with an ELISA reader. Inhibition of mitochondrial metabolism was shown as relative activity (% of control).

[3] = test system: SF-268 cells (glioblastoma cells); assay: Cytotoxicity assay (MTS reduction), SF-268; format: cell-based, human; settings: for activity at 4 µg/mL / activity at 20 µg/mL: Homo sapiens, SF-268, 72 h, 3 days, % of DMSO control, read-out: Growth percentage SF-268 (CNS); for activity at 4 µg/mL / inhibition of growth of SF-268 (in words): 4 μg/mL; for activity at 20 µg/mL: 20 μg/mL
Protocol: (§3) MCF-7 cells (human breast adenocarcinoma), NCI-H460 cells (non-small-cell lung cancer) and SF-268cells (glioblastoma cells) were cultured in a Dulbecco's modified Eagle's medium supplemented with a 10% fetal calf serum and a nonessential amino acid (Life Technologies, Inc.) and maintained at 37° C. in a humidified incubator with 5% CO2.
(§4) Human cancer cells were seeded in 96-well microtiter plates at a density of 6500, 2500 and 7500 cells/well in 100 μl of culture medium for MCF-7, NCI-H460, and SF-268, respectively. […] Cells were treated with test compounds for 3 days. Cell viability was determined by the 5-[3-(carboxymethoxy)-phenyl]-2-(4,5-dimethylthiazolyl)-3-(4-sulfophenyl)tetrazolium salt (MTS) reduction assay. Actinomycin D (10 μM, final concentration) and DMSO (0.1%, final concentration) were used as positive and vehicle controls, respectively. Results were expressed as a % of the DMSO control.

[4] = test system: MCF-7 cells (human breast adenocarcinoma); assay: Cytotoxicity assay (MTS reduction), MCF-7; format: cell-based; settings: for activity at 4 µg/mL / activity at 20 µg/mL: Homo sapiens, MCF7, 72 h, 3 days, % of DMSO control, read-out: Growth percentage MCF7 (Breast); for activity at 4 µg/mL / inhibition of growth of MCF7 (in words): 4 μg/mL; for activity at 20 µg/mL: 20 μg/mL
Protocol: as §3, §4

[5] = test system: NCI-H460 cells (non-small-cell lung cancer); assay: Cytotoxicity assay (MTS reduction), NCI-H460; format: cell-based, human; settings: for activity at 4 µg/mL / activity at 20 µg/mL: Homo sapiens, NCI-H460, 72 h, 3 days, % of DMSO control, read-out: Growth percentage NCI-H460 (Lung); for activity at 4 µg/mL / inhibition of growth of NCI-H460 (in words): 4 μg/mL; for activity at 20 µg/mL: 20 μg/mL
Protocol: as §3, §4

[6] = test system: Human adipose tissue derived stem cells (hADSCs); assay: Osteogenic differentiation and quantification of mineralization (Alizarin red S) in hADSCs; format: cell-based; settings: 10 μM
Protocol: as §1, §2
Osteogenic differentiation was induced by culturing cells in an osteo-induction medium (OIM, 10% FBS, 0.1 μM dexamethasone, 10 mM β-glycerophosphate, and L-Ascorbic 2 phosphate 100 μM in low glucose DMEM) for 7-14 days. The extracellular matrix calcification was estimated by using an Alizarin red S stain (Carl, A. et al Anal. Biochem. 2004, 329, 77). The Alizarin red S-stained mineral was quantified by the osteogenesis quantification kit (CHEMICON®).

Structure (SMILES)	Cell cytotoxicity (3 days, LDH) [1]	viability at 3 days, 10 µM [2]	activity at 4 µg/mL [3]	activity at 20 µg/mL [3]	activity at 4 µg/mL [4]	activity at 20 µg/mL [4]	activity at 4 µg/mL [5]	activity at 20 µg/mL [5]	inhibition of growth of SF-268 (in words) [3]	inhibition of growth of MCF7 (in words) [4]	inhibition of growth of NCI-H460 (in words) [5]	osteoblast activity (mineralization in hADSCs), in words [6]
COc1ccc(-c2cnoc2-c2ccc(OC(C)C)cc2OCCCCN2CCNCC2)cc1 [5c, 5-{4-Isopropoxy-2-[4-(piperazin-1-yl)butoxy]phenyl}-4-(4-methoxyphenyl)isoxazole]	33%	86%	68%	-2%	7%	-1%	29%	0%	–	–	–	–
COc1ccc(-c2cnoc2-c2ccc(OC(C)C)cc2OCCCCCCN2CCOCC2)cc1 [5f, 4-{6-{5-Isopropoxy-2-[4-(4-methoxyphenyl)isoxazol-5-yl]phenoxy}hexyl}morpholine]	17%	53%	38%	1%	44%	-1%	17%	0%	–	–	–	–
COc1ccc(-c2cnoc2-c2ccc(OC(C)C)cc2OCCCCCCCN2CCOCC2)cc1 [5j, 4-{7-{5-isopropoxy-2-[4-(4-methoxyphenyl)isoxazol-5-yl]phenoxy}heptyl}morpholine]	12%	54%	32%	2%	25%	1%	10%	0%	–	–	–	–
COc1ccc(-c2cnoc2-c2ccc(OCCCCCCN3CCNCC3)cc2O)cc1 [8a]	0%	64%	68%	-2%	7%	-1%	29%	0%	–	–	–	–
COc1ccc(-c2cnoc2-c2ccc(OC(C)C)cc2O)cc1 [compound 3, 5-Isopropoxy-2-[4-(4-methoxyphenyl)isoxazol-5-yl]phenol]	68%	6%	–	–	–	–	–	–	–	–	–	–
COc1ccc(-c2cnoc2-c2ccc(OC(C)C)cc2OCCCCN2CCOCC2)cc1 [5b, 4-{4-{5-Isopropoxy-2-[4-(4-methoxyphenyl)isoxazol-5-yl]phenoxy}butyl}morpholine]	13%	58%	58%	3%	63%	4%	52%	1%	–	–	–	–
COc1ccc(-c2cnoc2-c2ccc(OC(C)C)cc2OCCCCCCCN2CCCCC2)cc1 [5l, 5-{4-Isopropoxy-2-[7-(piperidin-1-yl)heptyloxy]phenyl}-4-(4-methoxyphenyl)isoxazole]	0%	58%	25%	2%	29%	1%	8%	1%	–	–	–	–
COc1ccc(-c2cnoc2-c2ccc(OC(C)C)cc2OCCCCCCCN2CCNCC2)cc1 [5k]	0%	68%	3%	1%	1%	1%	0%	1%	–	–	–	–
COc1ccc(-c2cnoc2-c2ccc(OC(C)C)cc2OCCCCCCCN2CCCC2)cc1 [5i, 5-{4-Isopropoxy-2-[7-(pyrrolidin-1-yl)heptyloxy]phenyl}-4-(4-methoxyphenyl)isoxazole]	0%	63%	30%	2%	32%	2%	11%	1%	–	–	–	–
COc1ccc(-c2cnoc2-c2ccc(OC(C)C)cc2OCCCCCCN2CCNCC2)cc1 [5g, 5-{4-Isopropoxy-2-[6-(piperazin-1-yl)hexyloxy]phenyl}-4-(4-methoxyphenyl)isoxazole]	0%	60%	20%	-1%	14%	-3%	0%	-1%	significantly inhibit the growth	significantly inhibit the growth	significantly inhibit the growth	–
COc1ccc(-c2cnoc2-c2ccc(OC(C)C)cc2OCCCCCCN2CCCC2)cc1 [5e, 5-{4-Isopropoxy-2-[6-(pyrrolidin-1-yl)hexyloxy]phenyl}-4-(4-methoxyphenyl)isoxazole]	0%	64%	38%	1%	55%	0%	22%	1%	–	–	–	more active than ipriflavone
CC(C)Oc1ccc2c(=O)c(-c3ccccc3)coc2c1 [Ipriflavone, reference compound]	0%	77%	–	–	–	–	–	–	–	–	–	–
COc1ccc(-c2cnoc2-c2ccc(OC(C)C)cc2OCCCCN2CCCCC2)cc1 [5d, 5-{4-Isopropoxy-2-[4-(piperidin-1-yl)butoxy]phenyl}-4-(4-methoxyphenyl)isoxazole]	0%	78%	119%	2%	90%	1%	68%	1%	–	–	–	–
COc1ccc(-c2cnoc2-c2ccc(OC(C)C)cc2OCCCCN2CCCC2)cc1 [5a, 5-{4-Isopropoxy-2-[4-(pyrrolidin-1-yl)butoxy]phenyl}-4-(4-methoxyphenyl)isoxazole]	0%	71%	121%	2%	83%	1%	81%	1%	–	–	–	more active than ipriflavone
COc1ccc(-c2cnoc2-c2ccc(OC(C)C)cc2OCCCCCCN2CCCCC2)cc1 [5h, 5-{4-isopropoxy-2-[6-(piperidin-1-yl)hexyloxy]phenyl}-4-(4-methoxyphenyl)isoxazole]	0%	57%	4%	-1%	13%	-3%	2%	-1%	significantly inhibit the growth	significantly inhibit the growth	significantly inhibit the growth	–

— patent US8138184B2, “Isoxazole derivatives and pharmaceutical compositions comprising the same” (Kaohsiung Medical University, priority 2008, dated 2012)
